Assay results from patent publication US8198085B2, “Somatic cells for use in cell therapy” (Core Dynamics Limited, priority 2005, dated 2012).
Several values for one entry are separate records, joined by “and”; a condition that tells them apart may be missing. Equal values may be shown once.

Tests used:
[1] = system: macrophages; test: Membrane integrity (SYBR14/PI) of macrophage units after freeze thawing and freeze drying; type: cell-based; details: for cell survival (membrane integrity): freeze-dried, 0.5M Trehalose
Description: Macrophage units were supplied by Professor Danon, Israel blood services, Tel-Hashomer, Israel. In the following experiments all buffy coats and/or macrophage units referred to were manipulated using the method and system for cultivating macrophages described in U.S. Pat. No. 6,146,890 which is incorporated herein by reference in its entirety, whereby hypo-osmotic shock is used to enhance the cells' differentiation into macrophages. Such manipulated cells were reported not to maintain viability after a conventional freezing process therefore their shelf life is very short, limiting their applications.
A part of the buffy coat was separated in order to produce mononuclear cells which include the monocyte/macrophage layer. The blood was separated on a Ficoll-Paque gradient for 30 minutes at 1000 g, afterwards the mononuclear layer was drawn out and washed twice in Phosphate Buffered Saline (PBS) (Calcium and Magnesium free, Bet Haemek, Israel) for 10 minutes at 200 g. The pellet was then resuspended with 3 ml of culture medium (RPMI 1640 with glutamine, 10% fetal calf serum and 1% antibiotic, all supplied by Bet Haemek, Israel). The rest of the buffy coat was left untouched.
Whole buffy coat or mononuclear cells in culture medium were incubated for one hour with different concentrations of Trehalose (0.1, 0.3, 0.5 and 1M). Incubation was done at 37° C., 5% CO2 humidified incubator.
Buffy coat samples and MNC samples were frozen by using the MTG-516 freezing apparatus (IMT, Israel) at a cooling rate of 5.1° C./min. Samples were rotated during freezing at 56 rounds per minute. After freezing, all samples were plunged into liquid nitrogen. Thawing was done at 37° C. in a water bath. Lyophilization was done by putting the frozen samples in a commercial lyophilizer (Labconco, USA) with a condenser temperature of −80° C. After drying, the cells were rehydrated with ultra pure water at 37° C. in order to regain their original volume (2.5 ml). […]

[2] = system: UCB derived MNC (mature lymphocytes, CD3); test: CD3 expression by FACS after lyophilization and re-hydration; type: cell-based, human; details: 0.1M trehalose
Experimental: Sample's volume was 2.5 ml and samples were frozen and then lyophilized as described above. After being in the lyophilizer for 72 h, the samples were taken out and re-hydrated with 2.4 ml of DDW at 37° C. After re-hydration samples were assayed for CD3 using FACS (fluorescent-activated cell sorter) in accordance with the method described in Hulling et al. The Journal of Immunology 2003, 171: 4824-4829.

[3] = system: mononuclear cells (MNC) derived from umbilical cord blood (UCB); test: Membrane integrity (SYBR14/PI live/dead stain) of UCB derived MNC after freeze thawing or freeze drying; type: cell-based, human; details: for Membrane integrity (%): 0.1M trehalose in PBS
Experimental: In the following experiments umbilical cord blood (UCB) was received from “Sheba” Medical Center. The blood was separated on ficoll-paque gradient. 3 ml of Histopaque 1077 was put in a 15 ml plastic test tube. Above it 3 ml of UCB was put and the samples were centrifuged for 30 minutes at 1000 g. After spinning was finished the mononuclear layer was taken out and PBS was added up to 10 ml total volume. The samples were centrifuged again for 10 minutes at 200 g or 250 g., after which, the supernatant was discarded and another step of washing was performed (again, 10 ml PBS was added and samples were centrifuged for 10 minutes at 250 g). At the end of this step a freezing solution (as detailed in each experiment) was added to the cells pellet. The volume of the freezing solution varied depending on the desired cell concentration (concentrations may range for example from 1 to 10×10^6 cells/ml) or volume. Unless otherwise mentioned, a 2.5 ml cell suspension was transferred into a 16 mm glass tube that was then frozen using a multi-gradient directional freezing system (MTG-516 by IMT, Israel), operated essentially as described in WO03/020874.
Unless otherwise stated, the directional freezing system temperatures were set to: 5° C. to −10° C. to −40° C. to −70° C. Seeding was performed before the samples entered the −10° C. temperature. The velocity at which the samples were pushed through the channels of the freezing machine was set to 0.2 mm/sec, resulting in a cooling rate of 5.1° C./min. During freezing the samples were rotated at 60 rounds per minute (RPM). After completion of the freezing process, samples were put in a liquid-nitrogen (LN) tank until they were either thawed or transferred into a lyophilizer.
Lyophilization was performed by taking samples out of the LN tank and putting them in a commercial lyophilizer near the condenser (Labconco, USA), at condenser temperature of −80° C. Samples were held in the lyophilizer for 3 days. After 3 days of lyophilization samples were taken out and rehydrated with 2.4 ml of double distilled water (DDW) at 37° C.
Viability was assessed using the live/dead fluorescent stain SYBR14/PI (Propidium Iodide) or SYTO/PI (both from Molecular Probes, USA) for membrane integrity. These stains are nucleic acid stains, SYBR14 and SYTO are membrane permeable molecules and PI can enter the cell only if the membrane is damaged. Where so specified, the assay used was trypan blue (TB).

[4] = system: UCB derived MNC; test: Cell proliferation assay based on thymidine incorporation; parameters: species or system human; details: cells lyophilized at ×10 EGCG (1.89 mg/ml) compared with ×2.5 EGCG (0.47 mg/ml); 48 hour incubation; FIG. 3
Experimental: Sample's volume was 2.5 ml and samples were frozen and then lyophilized as described above. After being in the lyophilizer for 72 h, the samples were taken out and re-hydrated with 2.4 ml of DDW at 37° C. After re-hydration samples were assayed for CD3 using FACS (fluorescent-activated cell sorter) in accordance with the method described in Hulling et al. The Journal of Immunology 2003, 171: 4824-4829. In addition, a cell proliferation assay was performed. In brief, the hydrated cells were incubated for 48 hour after which a proliferation assay based on thymidine incorporation was carried out (Promega, USA). The results of the proliferation assay are depicted in FIG. 3, wherein the proliferation index of the cells is depicted as a function of their number at initial plating.

| SMILES | cell survival (membrane integrity) ([1]; second experiment, FIG. 6C) [%] | cell survival (membrane integrity) ([1]; without Ficoll-Paque separation, FIG. 6B) [%] | membrane integrity ([1]; frozen-thawed with 0.5M trehalose, whole macrophage units, FIG. 6C) [%] | CD3 (%) ([2]; Lyophilized with 0.47 mg/ml EGCG) | CD3 (%) ([2]; Lyophilized with 1.89 mg/ml EGCG) | membrane integrity ([3]; 0.1M trehalose with 0.945 or 1.89 mg/ml EGCG, lyophilized and rehydrated, FIG. 2B) | viability (EGCG dose response) ([3]; 0.4M Trehalose, 0.189, 0.47, 0.945 and 1.89 mg/ml EGCG, after freezing and thawing and after freeze drying and re-hydration (exception 0.945 mg/ml after freeze-drying)) | Membrane integrity (%) ([3]; Fresh with 0.47 mg/ml EGCG) | Membrane integrity (%) ([3]; Lyophilized with 0.47 mg/ml EGCG, re-hydrated) | percentage of cells that presented an intact membrane ([3]; after freeze drying with 1.89 mg/ml EGCG, 0.4M Trehalose in PBS, FIG. 2A) | proliferation index [4] |
| --- | --- | --- | --- | --- | --- | --- | --- | --- | --- | --- | --- |
| OC[C@H]1O[C@H](O[C@H]2O[C@H](CO)[C@@H](O)[C@H](O)[C@H]2O)[C@H](O)[C@@H](O)[C@@H]1O [trehalose, Trehalose] | 55.35±2.9 | 91.86±4.2 | 72.03±2.8 | – | – | – | – | – | – | – | – |
| O=C(O[C@@H]1Cc2c(O)cc(O)cc2O[C@@H]1c1cc(O)c(O)c(O)c1)c1cc(O)c(O)c(O)c1 [EGCG, Epigallocatechin gallate] | – | – | – | 80 | 81% and 83% and 82% and 78% | very high | increased with increasing EGCG concentration | 97.36 ± 2.2 | 55.1 ± 8.5% and 59.8 ± 1.4% | about 90% | higher proliferation index |
